# In patent publication US10344017B2, “Pyrrolcarboxamide derivatives for the inhibition of ERK5” (CANCER RESEARCH TECHNOLOGY LIMITED, priority 2014, dated 2019):
# Like-named read-outs stand apart in the source and are kept apart here.
# Assays:
# ERK5 = target: T1, ERK5 (Homo sapiens, UniProt Q13164); assay: ERK5 IMAP assay (fluorescence polarisation); type: biochemical
# T1 construct: made in house
# [1] = test system: HA-ERK5-ΔP493 (MEK5D-activated, MEF2D-Gal4/Gal4-Luc reporter) in HEK293T cells; assay: Truncated dual-luciferase reporter assay, HEK293T forward transfection; type: cell-based; conditions: Homo sapiens, HEK-293T, average where more than one data point, read-out: Truncated ERK 5 Reporter Assay
# Procedure: Truncated Dual-Luciferase Reporter Assay
# HEK293T and HeLa Forward Transfection
# Constitutively-active, EGFP-tagged MEK5 (EGFP-MEK5D; 0.5 μg/μl), an EGFP-tagged construct containing no MEK5D (EGFP-C3; 0.5 μg/μl), and HA-tagged ERK5 with C-terminal truncation (HA-ERK5-ΔP493; 0.51 μg/μl) were diluted separately in sterile distilled water. Plasmid DNA and Lipofectamine 2000 (Invitrogen) were separately diluted in Opti-MEM growth media (reduced serum medium, Invitrogen), and incubated at room temperature for 5 min. Plasmid DNA (Tube A) and Lipofectamine 2000 (Tube B) were then combined and incubated for 20 min at room temperature to complex. Cells were then transfected by addition of 16 μl of the respective transfection mixture: 3 wells with EGFP-C3-containing (control) and 21 wells with MEK5D-containing transfection mixture (final volume, 100 μl). Cells were subsequently incubated for 4 h at 37° prior to addition of potential ERK5-inhibitory compounds.
# Addition of Compounds to ERK5-Transfected HEK293T or HeLa Cells
# Potential ERK5-inhibitory compounds were prepared as a 2× solution by addition of 2 μl compound (or DMSO as control) to 1 ml standard culture medium. Compounds were tested in triplicate at a concentration range of 0.003 μM, 0.01 μM, 0.03 μM, 0.1 μM, 0.3 μM and 1 μM (or 0.03 μM, 0.1 μM, 0.3 μM, 1 μM, 3 μM and 10 μM for BIX02189) by addition of 100 μl 2× solution to 100 μl transfected cells (final DMSO, 0.1% v/v). Cells were incubated for 24 h at 37° C.
# Cell Lysis and Luciferase Quantification
# After 24 h incubation in the absence (control) or presence of potential inhibitor, the culture medium was aspirated and cells lysed in 20 μl 1× passive lysis buffer (Dual-Luciferase Reporter Assay System, Promega) for a minimum of 15 min with agitation. Lysates were further processed immediately or stored at −80° C. Cellular inhibition of ERK5 was quantified using the Dual-Luciferase Reporter Assay System (Promega). Luciferase assay buffer/Luciferase assay substrate and Stop and Glo assay buffer/Stop and Glo substrate were prepared according to the manufacturer's instructions. Luciferase reagent (50 μl/well) was added immediately before luminescence detection using a FLUOstar Omega plate reader (BMG Labtech). Stop and Glo reagent (50 μl/well) was subsequently added, and the Renilla luciferase signal (transfection efficiency control) quantified.
# The ERK5-specific signalling activity was calculated by subtraction of the EGFP-C3 luciferase signal from the EGFP-MEK5D-induced luminescence. Luminescence in the absence of potential ERK5 inhibitor (DMSO control) was taken as 100% ERK5 activity. […] Unless stated otherwise, data are mean±standard deviation of three independent experiments.
# [2] = test system: ERK5 (HA-ERK5 wt activated by EGFP-MEK5D, MEF2D-Gal4/Gal4-Luc reporter) in HEK293 cells; assay: Dual-luciferase reporter assay (ERK5 reporter), reverse-transfected HEK293 cells; conditions: Homo sapiens, HEK293, read-out: ERK 5 Reporter Assay
# Procedure: Trypsinizing of Adherent Cell Colonies
# Cells were regularly passaged in order to maintain optimum colony sizes on plates. In order to do this, and to harvest cells for use in the dual-luciferase reporter assay, adherent cells were lifted from tissue culture dishes. Cell media was removed via aspiration, and the cell monolayer was washed with phosphate buffered saline (PBS) solution (10 mL), which was then aspirated.
# Reverse Transfection of HEK293 Cells
# Preparation of EGFP Control (C3) Working Solution (for 1×96 Well Plate)
# Preparation of HEK293 Cells for Reverse Transfection
# Trypsinized HEK293 cells were re-suspended in 19 mL of fresh cell media and counted using haemocytometry. Cells were then diluted with fresh cell media to achieve a final cell concentration of 2×10^5 cells/mL. 1237.5 μL and 7425 μL of this cell media was added to the C3 and 5D working solutions respectively. 100 μL of the transfected cells were then aliquoted into the appropriate wells in a 96-well opaque sided tissue culture plate, and incubated at 37° C. for 6 h.
# Addition of Compounds to HEK293 Cells
# 4 compounds was assayed per 96-well plate. For each compound, 1 mL of growth media was added to eight 1.5 mL Eppendorf® tubes. 6 μL of DMSO was added to two tubes for C3 and blank 5D wells, and 6 μL of the relevant compound stock solution was added to the 6 remaining tubes. […] Solutions of drug in media were thoroughly mixed, and 100 μL of the relevant compound was transferred (in triplicate) to the 96-well plate containing transfected HEK293 cells using an electronic multichannel pipette with variable tip spacing. Sealed plates were incubated at 37° C. for 24 h. Final compound concentrations were as follows; 30 μM, 10 μM, 3 μM, 1 μM and 0.3 μM.
# 15 mL of 1× passive lysis buffer (PLB) was prepared using 5×PLB (Dual-Luciferase Reporter Assay System, Promega® E1960), diluting with H2O. Assay plates prepared were removed from the incubator and the growth media removed by aspiration.
# [3] = average (e.g. geometric mean) where more than one data point, read-out: ERK5 IC50
# T1 sequence (Q13164 whole entry): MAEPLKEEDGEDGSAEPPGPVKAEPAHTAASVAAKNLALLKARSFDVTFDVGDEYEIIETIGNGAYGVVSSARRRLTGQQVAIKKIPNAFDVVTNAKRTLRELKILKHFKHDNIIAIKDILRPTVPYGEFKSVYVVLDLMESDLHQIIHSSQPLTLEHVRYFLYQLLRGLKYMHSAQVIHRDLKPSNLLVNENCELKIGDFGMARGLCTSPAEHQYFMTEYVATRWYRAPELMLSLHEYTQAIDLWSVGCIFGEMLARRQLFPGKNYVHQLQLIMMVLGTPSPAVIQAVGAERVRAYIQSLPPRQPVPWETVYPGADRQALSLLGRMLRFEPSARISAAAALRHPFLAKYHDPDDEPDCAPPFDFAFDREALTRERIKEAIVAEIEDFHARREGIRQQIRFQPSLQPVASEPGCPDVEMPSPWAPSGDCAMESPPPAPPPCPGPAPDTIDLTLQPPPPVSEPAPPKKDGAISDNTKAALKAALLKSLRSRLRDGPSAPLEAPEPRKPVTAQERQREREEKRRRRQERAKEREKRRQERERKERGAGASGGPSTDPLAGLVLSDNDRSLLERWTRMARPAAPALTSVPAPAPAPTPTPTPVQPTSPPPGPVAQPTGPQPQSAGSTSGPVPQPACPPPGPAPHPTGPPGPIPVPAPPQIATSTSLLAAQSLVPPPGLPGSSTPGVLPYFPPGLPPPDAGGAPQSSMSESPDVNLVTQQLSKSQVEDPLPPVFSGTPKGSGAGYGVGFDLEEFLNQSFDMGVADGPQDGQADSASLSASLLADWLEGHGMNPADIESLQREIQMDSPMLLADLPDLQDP
IC50 (ERK5; [3]) [nM],IC50 (ERK5) [nM],SMILES,IC50 [1] [nM],IC50 [2] [nM]
15.3,–,"CN(C)CCNc1ncc(NC(=O)c2cc(C(=O)c3c(Cl)ccc(Cl)c3F)c[nH]2)cn1 [Example 99, 4-(3,6-Dichloro-2-fluorobenzoyl)-N-(2-((2-(dimethylamino)ethyl)amino)pyrimidin-5-yl)-1H-pyrrole-2-carboxamide]",122,–
16.6,–,"O=C(Nc1cnc(NCCN2CCCC2)nc1)c1cc(C(=O)c2c(Cl)ccc(Cl)c2F)c[nH]1 [Example 102, 4-(3,6-Dichloro-2-fluorobenzoyl)-N-(2-((2-(pyrrolidin-1-yl)ethyl)amino)pyrimidin-5-yl)-1H-pyrrole-2-carboxamide]",85,–
36.8,–,"O=C(Nc1cnc(NCCN2CCOCC2)nc1)c1cc(C(=O)c2c(Cl)ccc(Cl)c2F)c[nH]1 [Example 103, 4-(3,6-Dichloro-2-fluorobenzoyl)-N-(2-((2-morpholinoethyl)amino)pyrimidin-5-yl)-1H-pyrrole-2-carboxamide]",135,–
10.4,–,"O=C(Nc1cnc(NCCN2CCCCC2)nc1)c1cc(C(=O)c2c(Cl)ccc(Cl)c2F)c[nH]1 [Example 104, 4-(3,6-Dichloro-2-fluorobenzoyl)-N-(2-((2-(piperidin-1-yl)ethyl)amino)pyrimidin-5-yl)-1H-pyrrole-2-carboxamide]",90,–
26.5,–,"O=C(Nc1ccc(CN2CCOCC2)nc1)c1cc(C(=O)c2c(Cl)ccc(Cl)c2F)c[nH]1 [Example 115, 4-(3,6-Dichloro-2-fluorobenzoyl)-N-(6-(morpholinomethyl)pyridin-3-yl)-1H-pyrrole-2-carboxamide]",31,–
1490,–,"O=C(Nc1cccnc1)c1cc(C(=O)c2cccc(Cl)c2Cl)c[nH]1 [Example 159, 4-(2,3-Dichlorobenzoyl)-N-(pyridin-3-yl)-1H-pyrrole-2-carboxamide]",–,24000
1710,–,"O=C(NC1CCNCC1)c1cc(C(=O)c2cccc(Cl)c2Cl)c[nH]1 [Example 160, 4-(2,3-Dichlorobenzoyl)-N-(piperidin-4-yl)-1H-pyrrole-2-carboxamide]",–,30000
2410,–,"O=C(NC1CCNCC1)c1cc(C(=O)c2c(F)cccc2C(F)(F)F)c[nH]1 [Example 161, 4-(2-Fluoro-6-(trifluoromethyl)benzoyl)-N-(piperidin-4-yl)-1H-pyrrole-2-carboxamide]",–,16700
316,–,"O=C(Nc1cncnc1)c1cc(C(=O)c2c(Cl)ccc(Cl)c2F)c[nH]1 [Example 173, 4-(3,6-Dichloro-2-fluorobenzoyl)-N-(pyrimidin-5-yl)-1H-pyrrole-2-carboxamide]",–,508
1880,–,"O=C(Nc1ccncc1)c1cc(C(=O)c2c(F)cccc2C(F)(F)F)c[nH]1 [Example 183, 4-(2-Fluoro-6-(trifluoromethyl)benzoyl)-N-(pyridin-4-yl)-1H-pyrrole-2-carboxamide]",–,7670
5680,–,"O=C(Nc1cccnc1)c1cc(C(=O)c2c(F)cccc2C(F)(F)F)c[nH]1 [Example 184, 4-(2-Fluoro-6-(trifluoromethyl)benzoyl)-N-(pyridin-3-yl)-1H-pyrrole-2-carboxamide]",–,10300
–,602,"O=C(Nc1ccncc1)c1cc(C(=O)c2c(F)cccc2Cl)c[nH]1 [Example 187, 4-(2-Chloro-6-fluorobenzoyl)-N-(pyridin-4-yl)-1H-pyrrole-2-carboxamide]",–,2330
–,676,"O=C(Nc1ccncc1)c1cc(C(=O)c2c(F)cccc2Br)c[nH]1 [Example 189, 4-(2-Bromo-6-fluorobenzoyl)-N-(pyridin-4-yl)-1H-pyrrole-2-carboxamide]",–,4000
1400,–,"Cc1cccc(F)c1C(=O)c1c[nH]c(C(=O)NC2CCNCC2)c1 [Example 191, 4-(2-Fluoro-6-methylbenzoyl)-N-(piperidin-4-yl)-1H-pyrrole-2-carboxamide]",–,19500
199,–,"CN1CCC(NC(=O)c2cc(C(=O)c3c(F)cccc3Cl)c[nH]2)CC1 [Example 192, 4-(2-Chloro-6-fluorobenzoyl)-N-(1-methylpiperidin-4-yl)-1H-pyrrole-2-carboxamide]",–,3010
386,–,"O=C(NC1CCNCC1)c1cc(C(=O)c2c(F)cccc2Br)c[nH]1 [Example 197, 4-(2-Bromo-6-fluorobenzoyl)-N-(piperidin-4-yl)-1H-pyrrole-2-carboxamide]",–,22000
156,–,"CN1CCC(NC(=O)c2cc(C(=O)c3c(F)ccc(Cl)c3F)c[nH]2)CC1 [Example 213, 4-(3-Chloro-2,6-difluorobenzoyl)-N-(1-methylpiperidin-4-yl)-1H-pyrrole-2-carboxamide]",–,3510
6030,–,"O=C(Nc1cccnc1)c1cc(C(=O)c2cc(F)ccc2F)c[nH]1 [Example 225, 4-(2,5-Difluorobenzoyl)-N-(pyridin-3-yl)-1H-pyrrole-2-carboxamide]",–,4770
10.2,–,"COc1ccc(Cl)c(C(=O)c2c[nH]c(C(=O)Nc3ccc(CC4CCN(C)CC4)nc3)c2)c1F [Example 236, 4-(6-Chloro-2-fluoro-3-methoxybenzoyl)-N-(6-((1-methylpiperidin-4-yl)methyl)pyridin-3-yl)-1H-pyrrole-2-carboxamide]",96,–
13,–,"COc1ccc(Cl)c(C(=O)c2c[nH]c(C(=O)Nc3cnc(CN4CCN(C)CC4)nc3)c2)c1F [Example 245, 4-(6-Chloro-2-fluoro-3-methoxybenzoyl)-N-(2-((4-methylpiperazin-1-yl)methyl)pyrimidin-5-yl)-1H-pyrrole-2-carboxamide]",461,–
8.5,–,"COc1ccc(Cl)c(C(=O)c2c[nH]c(C(=O)Nc3ccc(CN4CCN(C)CC4)nc3)c2)c1F [Example 246, 4-(6-Chloro-2-fluoro-3-methoxybenzoyl)-N-(6-((4-methylpiperazin-1-yl)methyl)pyridin-3-yl)-1H-pyrrole-2-carboxamide]",69,–
15.8,–,"COc1ccc(Cl)c(C(=O)c2c[nH]c(C(=O)Nc3cnc(CN4CCNCC4)nc3)c2)c1F [Example 250, 4-(6-Chloro-2-fluoro-3-methoxybenzoyl)-N-(2-(piperazin-1-ylmethyl)pyrimidin-5-yl)-1H-pyrrole-2-carboxamide]",573,–
12.2,–,"COc1ccc(Cl)c(C(=O)c2c[nH]c(C(=O)Nc3cnc(CC4CCNCC4)nc3)c2)c1F [Example 252, 4-(6-Chloro-2-fluoro-3-methoxybenzoyl)-N-(2-(piperidin-4-ylmethyl)pyrimidin-5-yl)-1H-pyrrole-2-carboxamide]",627,–
7.5,–,"O=C(Nc1cnc(CC2CCNCC2)nc1)c1cc(C(=O)c2c(Cl)ccc(Cl)c2F)c[nH]1 [Example 253, 4-(3,6-Dichloro-2-fluorobenzoyl)-N-(2-(piperidin-4-ylmethyl)pyrimidin-5-yl)-1H-pyrrole-2-carboxamide]",239,–
18.5,–,"CCN(CC)CCNc1ccc(NC(=O)c2cc(C(=O)c3c(Cl)ccc(Cl)c3F)c[nH]2)cn1 [Example 262, 4-(3,6-Dichloro-2-fluorobenzoyl)-N-(6-((2-(diethylamino)ethyl)amino)pyridin-3-yl)-1H-pyrrole-2-carboxamide]",149,–
